System: subcutaneous A549 lung tumor xenograft
Assay: antitumor efficacy in subcutaneous A549 lung tumor xenograft (caliper)
Format: in vivo, mice
Details: equivalent DOX dose 4 mg/kg i.v. at day 0, 2, 5 and 10
Protocol: In a separate study, we have systematically investigated the antitumor efficacy of cRGD-encoded micelles in a subcutaneous A549 lung tumor xenograft study. Tumor size was measured by a caliper and normalized to that at day 0 before treatment. In this study, animals were treated with an equivalent DOX dose at 4 mg/kg for free drug, 0 and 16% cRGD-DOX-SPIO micelles, and coadministration of 16% cRGD-DOX-SPIO micelles with free cRGD peptides ([…]). Free drug or drug-encapsulated micelles were injected i.v. (bolus) into the tail vein at day 0, 2, 5 and 10. The control group was injected with phosphate buffer saline (PBS). Three animals were used for each sample group.

With `COc1cccc2c1C(=O)c1c(O)c3c(c(O)c1C2=O)C[C@@](O)(C(=O)CO)C[C@@H]3O[C@H]1C[C@H](N)[C@H](O)[C@H](C)O1` [free DOX, doxorubicin] the “tumor size change” value was “did not change dramatically”.
